{"source": "patent US5380759A", "about": "“Methyl N-[6-(3,4,5-trimethoxybenzloxy)imidazo[1,2-b]pyridazin-2-zyl]carbamate used to treat leukemia” (priority 1987, dated 1995)", "key": {"[1]": {"tested_on": "P388/MTX", "experiment": "In vivo activity against drug resistant tumour P388/MTX", "set-up": "species or system mouse", "conditions": "optimum dose 7.5 mg/kg", "procedure": "(§1) CD2-F1 mice, of the same sex, weighing within a 3 gram range surrounding 20 g, are used for this test. Control and test animals are injected intraperitoneally with a suspension of 10^6 viable P388/O tumour cells on day 0. In each test several dose levels which bracket the LD20 for the compound are evaluated; each dose level group contains 6 animals. The test compounds are prepared either in physiologic saline containing 0.05% Tween 80 or distilled water containing 5% dextrose and are administered intraperitoneally on days 1,5 and 9 relative to tumour implant. Doses are on a mg/kg basis according to individual animals' body weights. The day of death for each animal is recorded and the median day of death identified for each group. The difference between the median survival time for treated and control groups is expressed as a percentage increase in life span (% ILS).\n(§2) E. Activity Against Drug-Resistant Tumours\nUsing a similar procedure to the Lymphocytic Leukaemia P388/O test, the compound of Example 1 was evaluated against P388/O tumours which had been made resistant to the following standard, clinically used anti-tumour agents: […]"}, "[2]": {"tested_on": "P388/BCNU", "experiment": "In vivo activity against drug resistant tumour P388/BCNU", "set-up": "species or system mouse", "conditions": "optimum dose 7.5 mg/kg", "procedure": "as §1, §2\nUsing a similar procedure to the Lymphocytic Leukaemia P388/O test, the compound of Example 1 was evaluated against P388/O tumours which had been made resistant to the following standard, clinically used anti-tumour agents:\nbis-chloronitrosourea (BCNU)"}, "[3]": {"tested_on": "HCT-116 human colon carcinoma cells", "experiment": "In vitro activity against human tumour cell line HCT-116 (proliferation)", "type": "cell-based", "conditions": "HCT-116, 96 h, MTT, read-out: IC50", "procedure": "(§3) Cells from the human tumour cell lines DLD-1, HCT-116, WiDr and A549 are exposed to serially diluted concentrations of test compounds over a 96 hour period in culture. The ability of such cells to proliferate over the test period is determined.\n(§4) Cells in log growth are plated into 96 well multiwell tissue culture dishes in 100 μl/well of RPMI 1640 culture medium supplemented with 10% foetal calf serum, antibiotics and test compound. All compounds are formulated initially at appropriate concentrations in DMSO, the final concentrations in this solvent being twenty times that required in the plate. A final 1 in 10 dilution in complete medium is then made before adding 100 μl to each well of the plate. All compounds are evaluated at concentrations ranging serially in four fold decrements from a top concentration some four fold greater than that already known to inhibit the proliferation of cells from the mouse lymphoid neoplasm, P388D1 by about 80 to 90 percent in a primary proliferative assay.\n(§5) After 96 hours the proliferation of cells exposed to test compound is compared with control untreated cells by one of two methods:\n(§6) b) 20 μl of MTT (5 mg/ml in PBS) is added to each well. After an incubation period of 4 hours the medium from each well is aspirated and replaced with 200 μl DMSO to dissolve the formazan crystals formed. Absorbances are read by an ELISA plate spectrophotometer at a wavelength of 540 nm. The IC50 is defined as that concentration of drug which decreases absorbance to 50% of that in control (drug-free) cultures. This method is used for the WiDr, HCT-116 and A549 cell lines."}, "[4]": {"tested_on": "tubulin", "experiment": "Turbidimetric assay of tubulin polymerisation", "type": "biochemical, horse", "conditions": "37° C., increase in A350nm 10 min after lag phase; read-out: Total tubulin polymerisation IC50", "procedure": "A) Tubulin Polymerisation Assay\n1. Preparation of tubulin\nAll manipulations are performed at 4° C. unless otherwise specified. The horse brain is washed in ice-cold BBG buffer and superficial meninges and blood vessels removed. After weighing, cerebral cortices are chopped, homogenised in 75 ml BBG buffer/100 g brain, centrifuged at 6500 g for 15 min and after removal of […], re-centrifuged at 100,000 g for 75 min. The volume of the supernatant (Vml) is measured and V/10 ml 10 mM GTP (Li salt) in H2 O added. The mixture is incubated in sealed centrifuge tubes (30 min, 34° C.) in a shaking water bath to polymerise the tubulin. After polymerisation the tubes are balanced and centrifuged at 100,000 g, (1 h at 27° C.) in a pre-warmed rotor. The high-speed pellet is resuspended in V/4 ml BB buffer and the preparation stirred on ice for 30 min and centrifuged at 100,000 g (1 h at 4° C.) to remove the cold-stable microtubules. An equal volume of BB2G buffer is added to the supernatant which is frozen rapidly in 5 ml samples in plastic weighing dishes floated on a solid CO2 /ethanol slurry, and stored overnight at -80° C. After ca. 18 hours the frozen samples of tubulin are thawed, 10 mM GTP in H2 O added to give a final concentration of 1 mM, and the new volume (Wml), is measured. The polymerisation/depolymerisation cycle is repeated exactly as above but substituting W for V to give twice-cycled tubulin.\n2. Turbidimetric Assay of Tubulin Polymerisation\nApparatus: recording spectrophotometer with a 6-position, thermostatted cuvette holder; full scale deflection=0.2 absorbance units.\nIn a 1 ml spectrophotometer cuvette are mixed 100 μl 10 mM GTP (Li salt) made up in BB buffer, 10 μl H2 O or DMSO-depending on selected drug solvent, BB buffer and tubulin preparation such that the final increase in A350nm is 0.15 units after 16 mins (approx. 100 μl of tubulin prep. or 2.5 mg protein) in a final volume of 1 ml at 37° C. All reagents are stored on ice.\nPolymerisation is initiated by raising the temperature to 37° C. and the increase in A350nm of triplicate samples against a reference cuvette is recorded. The reference sample includes a similar incubation mixture either without tubulin or with the addition of 1 mM Ca^2+. The increase over initial A350nm 10 min after the completion of lag phase (control polymerisation is 80% complete within this time) is calculated and expressed as a percentage of the control value, for a range of drug concentrations. The drug concentration required to give a 50% change (IC50) in the control value is determined."}, "[5]": {"tested_on": "P388/AMSA", "experiment": "In vivo activity against drug resistant tumour P388/AMSA", "set-up": "species or system mouse", "conditions": "optimum dose 5.0 mg/kg"}, "[6]": {"tested_on": "A549 human lung carcinoma cells", "experiment": "In vitro activity against human tumour cell line A549 (proliferation)", "type": "cell-based", "conditions": "A549, 96 h, MTT, read-out: IC50", "procedure": "as §3, §4, §5, §6"}, "[7]": {"tested_on": "M5076", "experiment": "In vivo activity against murine tumour M5076", "set-up": "species or system mouse", "conditions": "5 mg/kg i.p. days 1, 5 and 9; 1 expt", "procedure": "as §1\nG. In vivo activity of the compound of Example 1 against murine tumours\nUsing a similar procedure to the Lymphocytic Leukaemia P388/O test the compound of Example 1 was evaluated against the murine tumours B16, L1210 and M5076. A suspension of 10^6 tumour cells is implanted intraperitoneally into control and test animals on day zero. B16 tumour cells are administered intraperitoneally as a 1:10 Brei of cells on day zero. […] The day of death for each animal is recorded and the %ILS (percentage increase in life-span) calculated."}}, "data": [{"smiles": "COC(=O)Nc1cn2nc(OCc3cc(OC)c(OC)c(OC)c3)ccc2n1", "note": "[Example 1, Methyl N-[6-(3,4,5-trimethoxybenzyloxy)imidazo[1,2-b]pyridazin-2-yl]carbamate]", "values": [{"measurement": "60 Day Survivors", "setting": "[1]", "result": "1/6"}, {"measurement": "% ILS", "setting": "[1]", "result": "+100%"}, {"measurement": "60 Day Survivors", "setting": "[2]", "result": "0/6"}, {"measurement": "% ILS", "setting": "[2]", "result": "+131%"}, {"measurement": "IC50", "setting": "[3]", "result": 9.2, "unit": "nM"}, {"measurement": "IC50", "setting": "[4]", "result": 420, "unit": "nM"}, {"measurement": "60 Day Survivors", "setting": "[5]; (day 31)", "result": "4/6"}, {"measurement": "% ILS", "setting": "[5]", "result": "+134%"}, {"measurement": "IC50", "setting": "[6]", "result": 24, "unit": "nM"}, {"measurement": "Mean % ILS (±SEM)", "setting": "[7]", "result": 28, "unit": "%"}]}]}
